Source: ChEMBL document CHEMBL1201862, “PubChem BioAssay data set” (2004)
Calls of active or inactive are those of the source.

Columns and labels:
[1] = viability of uninfected HEp-2 cells – cell-based, HTS, cytotoxicity control for RSV inhibitor project, dose response (AID 2410); type: functional; details: human respiratory syncytial virus
[2] = target: T1, Voltage-gated N-type calcium channel alpha-1B subunit/Amyloid beta A4 precursor protein-binding family A member 1 (Homo sapiens, UniProt Q00975+Q02410); type: protein assay
Large T antigen = Large T antigen (Simian virus 40, UniProt P03070); type: functional, Betapolyomavirus macacae;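 also: Confirmatory-stage PubChem screen for compounds that inhibit SV40 T antigen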
[3] = target: T1, Voltage-gated N-type calcium channel alpha-1B subunit/Amyloid beta A4 precursor protein-binding family A member 1; type: protein assay; remark: listed apart in the source
[4] = target: Neurotensin receptor type 1 (Homo sapiens, UniProt P30989); type: functional;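 also: Image-based confirmatory dose-response assay measuring agonist activity at NTR1; NTR1-expressing U2OS osteosarcoma cells imaged for beta-arrestin GFP spot formation; agonist potency where compounds increase beta-arrestin recruitment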
[5] = target: DNA damage-inducible transcript 3 protein (Mus musculus, UniProt P35639); type: functional, Cricetulus griseus
INS1 = assay: INS-1E survival protection against cytokine death – cell-based, luminescence, retest, dose response (AID 449756); type: functional; details: Rattus norvegicus;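 also: cell death triggered by IL-1 beta plus TNF-alpha plus IFN-gamma mixture; protective hits raise ATP signal compared with cytokine alone wells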
Genome polyprotein = Genome polyprotein (dengue virus type 2, UniProt P29990); assay: flavivirus cap methylation enzyme inhibition – biochemical, confirmation dose response, primary screen (AID 588689); type: functional
[6] = reduction of Shn3 3'UTR-driven luciferase in osteoblasts – cell-based, Clone20 osteoblasts, firefly luciferase, cherry-picked, dose response (AID 624132); type: functional;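 also: firefly luciferase luminescence from reporter carrying the Shn3 3'UTR in osteoblasts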
[7] = non-specific 3'UTR reporter inhibition in Clone20-Shn3RL – cell-based, Renilla luciferase, cherry-picked, counter-screen for Shn3 inhibitor project, dose response (AID 624133); type: functional
[8] = viability loss in HeLa cells – cytotoxicity control for MgcRacGAP inhibitor project, dose response (AID 624300); type: functional
[9] = target: T2, Rac GTPase-activating protein 1 (Homo sapiens, UniProt Q9H0H5); assay: blockers of MgcRacGAP-driven Rac1 GTP hydrolysis – biochemical, ADP Hunter fluorescence, primary and confirmatory, confirmation (AID 624330); type: functional
T2 sequence (Q9H0H5 whole entry): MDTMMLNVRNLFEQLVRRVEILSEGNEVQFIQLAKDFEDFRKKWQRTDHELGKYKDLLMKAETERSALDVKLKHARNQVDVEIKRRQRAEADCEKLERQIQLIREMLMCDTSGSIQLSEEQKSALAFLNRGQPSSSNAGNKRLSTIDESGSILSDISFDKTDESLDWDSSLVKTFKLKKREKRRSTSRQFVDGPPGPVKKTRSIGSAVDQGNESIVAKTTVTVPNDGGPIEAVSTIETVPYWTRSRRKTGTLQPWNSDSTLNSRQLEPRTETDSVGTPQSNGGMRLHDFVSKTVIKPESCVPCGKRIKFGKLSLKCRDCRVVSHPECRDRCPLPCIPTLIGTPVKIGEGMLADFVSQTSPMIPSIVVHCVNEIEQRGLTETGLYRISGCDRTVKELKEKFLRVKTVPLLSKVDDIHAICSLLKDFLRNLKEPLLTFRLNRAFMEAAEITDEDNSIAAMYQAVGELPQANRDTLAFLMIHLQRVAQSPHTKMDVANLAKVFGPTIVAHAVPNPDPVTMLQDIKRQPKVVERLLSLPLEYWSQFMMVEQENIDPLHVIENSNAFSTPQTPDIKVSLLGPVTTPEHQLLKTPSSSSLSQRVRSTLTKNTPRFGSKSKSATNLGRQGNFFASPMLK

[10] = target: Tyrosine-protein phosphatase non-receptor type 7 (Homo sapiens, UniProt P35236); type: functional
[11] = target: T3, Tyrosine-protein phosphatase non-receptor type 22 (Homo sapiens, UniProt Q9Y2R2); type: functional
[12] = target: T3, Tyrosine-protein phosphatase non-receptor type 22; type: functional; remark: listed apart in the source
Integrin alpha-L = Integrin alpha-L (Mus musculus, UniProt P24063); assay: modulators of CD8 T cell-vesicle binding, dose response, powder samples, mouse 2C CD8+ cells (AID 504565); type: functional
T-cell = assay: loss of vesicle association with mouse CD8+ T cells – mouse 2C CD8+ T cells, flow cytometry, dose response (AID 485284); type: functional
[13] = microbe, parasite or virus in culture; type: functional; details: Mycobacterium tuberculosis
Troponin, cardiac muscle = Troponin, cardiac muscle (Homo sapiens, UniProt P19429+P45379+P63316); assay: Fluorescence-based biochemical high throughput dose response assay for activators of the calcium sensitivity of cardiac Regulated Thin Filaments (RTF). [Related pubchem assays (depositor defined):AID493008, AID493018, AID504382, AID504383]; type: protein-complex assay
[14] = viability of PTEN-deleted HCT116 cells – cell-based, HCT116 PTEN knockout, dose response (AID 1047); type: functional;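 also: HCT116 colon tumor cells with PTEN knocked out; cells exposed to compound for 60 hours before readout; potency for loss of cell viability measured by luminescence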
[15] = viability of HCT116 lacking mutant beta-catenin – cell-based, human colon tumor, dose response (AID 1045); type: functional;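 also: HCT116 colon tumor cells with beta catenin knocked out; cells exposed to compound for 60 hours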
[16] = target: T4, Heat shock factor protein 1 (Mus musculus, UniProt P38532); assay: enhancement of HSF1-driven luciferase signal – cell-based, NIH3T3, luminescence, dose retest, confirmation (AID 435004); type: functional;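 also: stress induced by proteasome inhibitor MG132 added 30 min after compound; luciferase reporter driven by HSF1 response element in NIH3T3 cells; actives raise luminescence as potentiators of the MG132 stress response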
T4 sequence (P38532 whole entry): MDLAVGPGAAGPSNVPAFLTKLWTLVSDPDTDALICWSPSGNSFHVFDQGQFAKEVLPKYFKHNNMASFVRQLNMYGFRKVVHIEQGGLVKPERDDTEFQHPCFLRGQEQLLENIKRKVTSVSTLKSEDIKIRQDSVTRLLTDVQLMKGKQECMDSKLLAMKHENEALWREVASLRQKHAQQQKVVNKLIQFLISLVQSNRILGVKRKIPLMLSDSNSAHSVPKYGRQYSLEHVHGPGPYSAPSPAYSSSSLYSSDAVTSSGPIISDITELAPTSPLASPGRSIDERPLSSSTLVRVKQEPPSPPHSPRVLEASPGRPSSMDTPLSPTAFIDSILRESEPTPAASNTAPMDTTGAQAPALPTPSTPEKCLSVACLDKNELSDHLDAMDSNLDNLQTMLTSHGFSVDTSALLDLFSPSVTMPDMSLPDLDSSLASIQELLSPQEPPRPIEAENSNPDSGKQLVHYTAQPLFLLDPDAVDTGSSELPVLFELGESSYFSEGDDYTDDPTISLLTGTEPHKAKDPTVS

[17] = Intein inhibitors as potential Tuberculosis drugs, a cytotoxicity screen. [Related pubchem assays (depositor defined):AID2221, AID2223, AID434968, AID435010, AID449749, AID449750, AID489010]; type: functional
[18] = target: T5, Replicative DNA helicase DnaB (Mycobacterium tuberculosis, UniProt P9WMR3); assay: DnaB intein splicing inhibitors, dose response, biochemical, cell-free fluorescence (AID 449749); type: functional
T5 sequence (P9WMR3 whole entry): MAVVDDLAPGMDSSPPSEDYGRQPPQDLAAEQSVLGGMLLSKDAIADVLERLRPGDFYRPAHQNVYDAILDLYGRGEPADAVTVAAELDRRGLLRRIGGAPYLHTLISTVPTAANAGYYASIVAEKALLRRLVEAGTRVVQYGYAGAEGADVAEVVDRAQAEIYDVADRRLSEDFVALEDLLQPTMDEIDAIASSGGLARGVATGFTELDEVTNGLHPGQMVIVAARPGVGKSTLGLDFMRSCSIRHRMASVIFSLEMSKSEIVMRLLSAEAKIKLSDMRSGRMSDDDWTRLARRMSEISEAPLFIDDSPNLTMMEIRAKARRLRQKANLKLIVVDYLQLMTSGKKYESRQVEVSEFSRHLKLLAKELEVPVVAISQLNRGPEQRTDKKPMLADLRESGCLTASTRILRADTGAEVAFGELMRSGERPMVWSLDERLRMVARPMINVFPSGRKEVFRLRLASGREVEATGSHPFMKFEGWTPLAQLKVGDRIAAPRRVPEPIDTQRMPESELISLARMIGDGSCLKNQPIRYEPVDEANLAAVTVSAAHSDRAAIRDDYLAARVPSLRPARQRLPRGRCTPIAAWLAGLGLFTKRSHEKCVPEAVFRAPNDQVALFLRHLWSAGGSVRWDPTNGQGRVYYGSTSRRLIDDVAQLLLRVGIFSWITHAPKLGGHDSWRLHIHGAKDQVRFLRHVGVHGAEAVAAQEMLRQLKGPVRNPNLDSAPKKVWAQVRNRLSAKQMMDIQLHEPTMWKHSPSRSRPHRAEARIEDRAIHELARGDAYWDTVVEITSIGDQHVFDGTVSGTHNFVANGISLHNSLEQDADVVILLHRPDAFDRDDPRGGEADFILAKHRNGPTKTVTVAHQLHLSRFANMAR

Protein RecA = target: T6, Protein RecA (Mycobacterium tuberculosis, UniProt P9WHJ3); assay: Fluorescence Cell-Free Homogeneous Dose Retest to Identify Inhibitors of RecA-Intein Splicing Activity. [Related pubchem assays (depositor defined):AID2097, AID2223, AID489010, AID492950]; type: functional
T6 sequence (P9WHJ3 whole entry): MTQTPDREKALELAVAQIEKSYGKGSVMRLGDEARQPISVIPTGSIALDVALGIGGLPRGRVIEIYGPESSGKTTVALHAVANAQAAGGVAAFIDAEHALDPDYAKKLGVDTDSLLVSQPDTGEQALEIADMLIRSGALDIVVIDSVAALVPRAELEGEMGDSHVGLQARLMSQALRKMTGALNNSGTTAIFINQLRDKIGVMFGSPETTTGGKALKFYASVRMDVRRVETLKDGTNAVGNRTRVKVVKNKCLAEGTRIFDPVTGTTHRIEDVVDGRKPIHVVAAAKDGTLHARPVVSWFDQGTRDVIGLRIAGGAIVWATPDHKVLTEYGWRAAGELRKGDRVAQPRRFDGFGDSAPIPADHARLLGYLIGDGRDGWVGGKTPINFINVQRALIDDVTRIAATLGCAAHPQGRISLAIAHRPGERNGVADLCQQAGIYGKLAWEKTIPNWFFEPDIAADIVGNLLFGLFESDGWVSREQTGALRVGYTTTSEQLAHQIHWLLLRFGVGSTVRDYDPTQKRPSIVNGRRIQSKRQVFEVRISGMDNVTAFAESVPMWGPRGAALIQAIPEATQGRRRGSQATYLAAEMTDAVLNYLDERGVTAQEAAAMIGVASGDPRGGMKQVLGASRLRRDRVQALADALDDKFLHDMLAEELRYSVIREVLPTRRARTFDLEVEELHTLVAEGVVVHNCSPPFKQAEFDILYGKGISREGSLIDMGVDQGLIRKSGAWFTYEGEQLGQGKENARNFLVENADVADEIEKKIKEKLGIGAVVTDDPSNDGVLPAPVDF

[19] = Vero E6 cell cytotoxicity, dose response, cytotoxicity control for non-replicating M. tuberculosis project, secondary assay (AID 492998); type: functional, VeroE6; details: Vero C1008
[20] = target: T7, Kappa-type opioid receptor (Homo sapiens, UniProt P41145); assay: SAR analysis of small molecule antagonists of the kappa opioid receptor via a luminescent beta-arrestin assay - Set 4. [Related pubchem assays (depositor defined):AID1777, AID1778, AID1785, AID1786, AID1966, AID2133, AID2136, AID2285]; type: functional
[21] = target: T7, Kappa-type opioid receptor; assay: SAR analysis of small molecule antagonists of the kappa opioid receptor via a luminescent beta-arrestin assay - Set 5. [Related pubchem assays (depositor defined):AID1778, AID1785]; type: functional
[22] = HEK-293T viability loss after treatment – luminescence, T-cell screen hits, cytotoxicity control for TCR NF-kB inhibitor project, dose response (AID 489026); type: functional, cell-based;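 also: cells exposed to compound about 14 hours before the viability readout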
Paired box protein Pax-8 = Paired box protein Pax-8 (Homo sapiens, UniProt Q06710); assay: PAX8 transcriptional activity inhibition in RMG-I – RMG-I cells, luciferase, cherry-pick, dose response (AID 687027); type: functional, cell-based;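 also: luciferase reporter driven by Pax8 target thyroperoxidase promoter measured by SteadyGlo luminescence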

## Cc1ccc(-c2ccc(/C=C3\C(=O)ON=C3c3ccccc3)o2)c([N+](=O)[O-])c1
[1]
  CC50: 9.29 µM (active)
[2]
  IC50: 10.5 µM (active)
Large T antigen
  IC50: 29.5 µM (active)
[3]
  IC50: > 50 µM (inactive)
[4]
  EC50: 7.89 µM (active)
[5]
  Absolute IC50 (CHOP): 10 µM
INS1
  AC50: 7.23 µM (active)
Genome polyprotein
  IC50: 11.1 µM (active)
[6]
  AC50: 3.3 µM (active)
[7]
  AC50: 15 µM (active)
[8]
  CC50: 50 µM (active)
[9]
  IC50: 67.2 µM (active)

## O=C(NCc1ccccc1)c1cncc(Br)c1
[10]
  IC50: > 79.4 µM (inactive)
[11]
  IC50: > 79.4 µM (inactive)
[12]
  IC50: > 79.4 µM (inactive)

## CCOC(=O)c1ccc(S(=O)(=O)N2CCN(C3CCCC3)CC2)cc1
Integrin alpha-L
  EC50: 11 µM (active)
T-cell
  EC50: 22.2 µM (active)

## CC(Oc1ccc(F)cc1)C(=O)Nc1sc2c(c1C(=O)NCc1cccnc1)CCCC2 (stereo unspecified)
[13]
  CC50: > 40 µM (active)
Troponin, cardiac muscle
  EC50: > 71.5 µM (inactive)

## Cc1cc(C)cc(Cn2ncc(Cl)c(Cl)c2=O)c1
[14]
  EC50: 8.8 µM (active)
[15]
  EC50: 6.91 µM (active)
[16]
  EC50: 21.7 µM (active)
[17]
  CC50: 22.5 µM (active)
[18]
  AC50: 2.12 µM (active)
Protein RecA
  EC50: 985 nM (active)

## O=C(CCS(=O)(=O)Cc1ccccc1)Nc1ncc([N+](=O)[O-])s1
[19]
  CC50: > 20 µM (active)

## Cc1ccc(S(=O)(=O)NCc2ccc(C(=O)NCCN(Cc3ccccc3)CC(C)C)cc2)cc1
[20]
  IC50: > 20 µM (inactive)
[21]
  IC50: 4.33 µM (active)

## COc1ccc(C[C@H](N)C(=O)N[C@H]2[C@@H](O)[C@H](n3cnc4c(N(C)C)ncnc43)O[C@@H]2CO)cc1
[13]
  CC50: 4.73 µM (active)
[22]
  IC50: > 80 µM (inactive)
Paired box protein Pax-8
  AC50: 546 nM (active)
